US20160318933A1, “FUSED PYRAZOLE DERIVATIVE” (SUMITOMO DAINIPPON PHARMA CO., LTD., priority 2013, published 2016)
pEC50: −log10 of the molar value. Counter-ions that a name gives are not always drawn.

Biological target: T1, human brain-derived dopamine D4 receptor (Homo sapiens, UniProt P21917)
T1 construct: expressed in transfected cells; host or cells: CHO (CHO-K1) or HEK293 cells
T1 sequence (P21917 1-419): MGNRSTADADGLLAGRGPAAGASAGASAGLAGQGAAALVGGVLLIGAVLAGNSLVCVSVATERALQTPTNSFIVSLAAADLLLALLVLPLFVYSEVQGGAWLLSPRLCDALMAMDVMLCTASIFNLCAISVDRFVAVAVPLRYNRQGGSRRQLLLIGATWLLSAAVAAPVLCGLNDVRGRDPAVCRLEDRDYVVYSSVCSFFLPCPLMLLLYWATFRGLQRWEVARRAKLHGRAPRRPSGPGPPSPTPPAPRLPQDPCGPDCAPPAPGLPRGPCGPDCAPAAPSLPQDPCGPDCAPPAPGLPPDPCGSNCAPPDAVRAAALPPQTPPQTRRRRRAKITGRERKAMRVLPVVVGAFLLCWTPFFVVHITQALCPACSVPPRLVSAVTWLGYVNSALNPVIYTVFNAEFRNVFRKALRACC
Experiment: Agonistic activity in G protein dependent pathway of dopamine D4 receptor (aequorin intracellular calcium luminescence, FDSS)
Type: cell-based
Conditions: for pEC50: concentration required to achieve a 50% response of Emax, CHO-K1 or HEK293 cells transfected with D4 receptor; for Emax: read-out: Maximal activity on D4 receptor (%)
Source text: The G protein dependent pathway is a pathway for transmitting signals in cells via a second messenger by stimulating a G protein through the binding of guanosine triphosphate (GTP) to the G protein. When GPCRs are activated by the binding of a ligand, a G protein binds to the GPCRs, and thereby GTP binds to a Gα subunit that is one of G protein subunits and a Gγβ subunit is dissociated. The activated Gα subunit regulates intracellular cAMP levels by the activation or inhibition of an adenylate cyclase, and regulates intracellular calcium levels by the activation of phospholipase C to transmit signals in cells.
The agonistic activities of the present compounds in the G protein dependent pathway were evaluated on the basis of intracellular calcium levels as follows. CHO-K1 or HEK293 cell lines transfected with D4 receptor genes were seeded in a 384-well plate, and incubated in a CO2 incubator at 37° C. for 24 hours, and then a solution of the present compound in DMSO was added into cells preloaded with coelenterazine to measure the change in luminescent signals with a FDSS (Hamamatsu Photonics K.K.). […] The agonistic activity of the present compound was calculated according to the measured luminescent signals, as the maximal activity (Emax) of the present compound. EC50 value was calculated as the concentration of the present compound required to achieve a 50% response of Emax.

SMILES	pEC50	Emax [%]
c1ccc(CN2CCCn3nc(-c4ccccn4)cc3C2)cc1 [Example 8]	6.98	37
Cc1n[nH]c2ccc(CN3CCn4nc(-c5ccccn5)cc4C3)cc12 [Example 37]	7.21	54
Cc1c(-c2ccccn2)nn2c1CN(Cc1ccc(C(F)(F)F)nc1N)CC2 [Example 92]	7.22	64
Cc1cccnc1-c1cc2n(n1)CCN(Cc1ccc(C(F)(F)F)c(F)c1)C2 [Example 48]	7.02	50
Cc1ncc(CN2CCn3nc(-c4ncccc4C)cc3C2)c(N)n1 [Example 30, 2-Methyl-5-{[2-(3-methylpyridin-2-yl)-6,7-dihydropyrazolo[1,5-a]pyrazin-5(4H)-yl]methyl}pyrimidine-4-amine]	7.10	53
Cc1ccc(CN2CCn3nc(-c4ncccc4C)cc3C2)cc1 [Example 53]	8.00	99
Cc1cccnc1-c1cc2n(n1)CCN(Cc1ccc3c(c1)N(C)C(=O)CS3)C2 [Example 77]	7.24	62
Fc1ccc(CN2CCn3nc(-c4ncccc4F)cc3C2)cn1 [Example 169]	7.29	80
Cc1ccc(CN2CCn3nc(-c4ncccc4F)c(C)c3C2)nc1 [Example 120]	7.64	98
Cc1ncc(CN2CCn3nc(-c4ccccn4)c(Cl)c3C2)c(N)n1 [Example 172, 5-{[3-Chloro-2-(pyridin-2-yl)-6,7-dihydropyrazolo[1,5-a]pyrazin-5 (4H)-yl]methyl}-2-methylpyrimidine-4-amine]	7.05	53
Fc1cccnc1-c1cc2n(n1)CCN(Cc1ccc(C(F)(F)F)nc1)C2 [Example 162]	7.23	62
Cc1ccc(CN2CCn3nc(-c4ncccc4C)c(Cl)c3C2)nc1 [Example 106, 3-Chloro-2-(3-methylpyridin-2-yl)-5-[(5-methylpyridin-2-yl)methyl]-4,5,6,7-tetrahydropyrazolo[1,5-a]pyrazine]	7.18	94
Cc1cccnc1-c1cc2n(n1)CCN(Cc1cc3c(cn1)COC3)C2 [Example 182]	7.10	47
Cc1cccnc1-c1cc2n(n1)CCN(Cc1cc3n(n1)CCCC3)C2 [Example 91]	7.31	44
Cc1cccnc1-c1nn2c(c1C)CN(Cc1ccc(C(F)(F)F)cc1)CC2 [Example 71]	7.06	53
Cn1nc(CN2CCn3nc(-c4ncccc4C(F)(F)F)cc3C2)c2ccccc21 [Example 153]	7.03	57
Cc1cccnc1-c1cc2n(n1)CCN(Cc1n[nH]c3c(C)cccc13)C2 [Example 104]	7.74	67
Cc1ncc(CN2CCn3nc(-c4ccccn4)c(C)c3C2)c(N)n1 [Example 142]	7.17	82
Cc1cccnc1-c1cc2n(n1)CCN(Cc1ccc(CF)nc1)C2 [Example 122]	7.30	47
Cc1cccc(CN2CCn3nc(-c4ncccc4C)cc3C2)n1 [Example 156]	7.26	70
Clc1c(-c2ccccn2)nn2c1CN(Cc1ccccc1)CC2 [Example 173, 5-Benzyl-3-chloro-2-(pyridin-2-yl)-4,5,6,7-tetrahydropyrazolo[1,5-a]pyrazine]	7.92	63
Cc1cccnc1-c1cc2n(n1)CCN(Cc1ccc(OC(F)(F)F)c(F)c1)C2 [Example 177, 5-[3-Fluoro-4-(trifluoromethoxy)benzyl]-2-(3-methylpyridin-2-yl)-4,5,6,7-tetrahydropyrazolo[1,5-a]pyrazine monohydrochloride]	6.85	39
Cc1c(-c2ccccn2)nn2c1CN(Cc1ccc(C#N)cc1)CC2 [Example 75]	7.43	61
Cc1cccnc1-c1cc2n(n1)CCN(Cc1ccc3cn[nH]c3c1)C2 [Example 34]	8.28	73
Cn1c(CN2CCn3nc(-c4ncccc4F)cc3C2)nc2ccccc21 [Example 164]	7.26	64
FC(F)(F)c1c(-c2ccccn2)nn2c1CN(Cc1ccccc1)CC2 [Example 175]	7.04	50
Cc1ccc(CN2CCn3nc(-c4ncccc4C)cc3C2)cn1 [Example 67]	7.57	64

SMILES	pEC50	Emax [%]
Cc1cnc(N)c(CN2CCn3nc(-c4ncccc4C)cc3C2)c1 [Example 103]	6.90	53
Cc1cccnc1-c1cc2n(n1)CCN(Cc1cc3ccccn3n1)C2 [Example 90]	7.54	55
Cn1cc(CN2CCn3nc(-c4ncccc4F)cc3C2)c2ccccc21 [Example 166]	7.36	85
Cc1cccnc1-c1cc2n(n1)CCN(Cc1cc3c(cn1)OCC3)C2 [Example 185]	7.09	51
Cc1cccnc1-c1cc2n(n1)CCN(Cc1ccc(OC(F)(F)F)cc1C#N)C2 [Example 52]	7.47	58
Fc1ccc(CN2CCCn3nc(-c4ccccn4)cc3C2)cc1 [Example 9]	7.05	34
Cc1c(-c2ncccc2F)nn2c1CN(Cc1ccc(C(F)F)cn1)CC2 [Example 179]	7.19	38
Cc1ncc(CN2CCn3nc(-c4ccccn4)c(F)c3C2)c(N)n1 [Example 141]	7.06	56
Fc1cccc2[nH]nc(CN3CCn4nc(-c5ccccn5)cc4C3)c12 [Example 102]	6.94	48
Cc1cccnc1-c1cc2n(n1)CCN(Cc1ccc3c(c1)N(C)C(=O)CC3)C2 [Example 70]	7.07	45
Cc1cccnc1-c1cc2n(n1)CCN(Cc1cc3c(cn1)OCCC3)C2 [Example 136]	7.20	52
Cc1ncc(CN2CCn3nc(-c4ncccc4F)cc3C2)c(N)n1 [Example 46]	7.35	59
Cc1cccnc1-c1cc2n(n1)CCN(Cc1ccc(C(F)F)cn1)C2 [Example 133]	8.30	47
Cc1c(-c2ccccn2)nn2c1CN(Cc1ccccc1)CCC2 [Example 32, 5-Benzyl-3-methyl-2-(pyridin-2-yl)-5,6,7,8-tetrahydro-4H-pyrazolo[1,5-a][1,4]diazepine]	7.72	52
Cc1ccc(CN2CCn3nc(-c4ncccc4C)c(C)c3C2)cc1 [Example 72]	7.48	65
Cc1ccnc(CN2CCn3nc(-c4ccccn4)c(C)c3C2)c1 [Example 93]	7.64	56
Cc1ccc(CN2CCn3nc(-c4ccccn4)c(C)c3C2)cc1 [Example 76]	7.36	59
Cc1cccnc1-c1cc2n(n1)CCN(Cc1n[nH]c3cccc(C)c13)C2 [Example 45]	6.80	54
c1ccc(-c2cc3n(n2)CCN(Cc2ccc4occc4c2)C3)nc1 [Example 39]	7.46	69
Cc1cccnc1-c1cc2n(n1)CCN(Cc1ccc(CF)c(C)n1)C2 [Example 180]	7.42	63
c1ccc(CN2CCn3nc(-c4ccccn4)cc3C2)cc1 [Example 1, 5-Benzyl-2-(pyridin-2-yl)-4,5,6,7-tetrahydropyrazolo[1,5-a]pyrazine]	7.70	71
Cc1ncc(CN2CCn3nc(-c4ncccc4C)cc3C2)c(C)n1 [Example 190, 5-[(2,4-Dimethylpyrimidin-5-yl)methyl]-2-(3-methylpyridin-2-yl)-4,5,6,7-tetrahydropyrazolo[1,5-a]pyrazine]	7.22	61
Cc1cccnc1-c1cc2n(n1)CCN(Cc1c[nH]c3ccccc13)C2 [Example 147]	7.48	59
Cc1cccc(CN2CCn3nc(-c4ncccc4F)c(C)c3C2)n1 [Example 126]	7.96	91
Cc1cccnc1-c1cc2n(n1)CCN(Cc1ccc(C#N)cc1)C2 [Example 57]	7.08	77
FC(F)(F)c1cccnc1-c1cc2n(n1)CCN(Cc1ccccc1)C2 [Example 140, 5-Benzyl-2-[3-(trifluoromethyl)pyridin-2-yl]-4,5,6,7-tetrahydropyrazolo[1,5-a]pyrazine]	7.07	85
Cc1cccnc1-c1cc2n(n1)CCN(Cc1cc(OC(F)(F)F)ccc1F)C2 [Example 64]	6.97	42
